Data on 6 molecules can be found in patent publication US9951024B2, “Small-molecule inhibitors targeting G-protein-coupled Rho guanine nucleotide exchange factors” (Children's Hospital Medical Center, priority 2013, dated 2018).

One assay concerns the target T1, RhoA-LARG interaction (Homo sapiens, UniProt Q9NZN5).
T1 construct: human LARG (residues 765-1,138); made in house; host or cells: E. coli BL21 (DE3) (LARG), E. coli DH5α (GST-RhoA)
T1 sequence (Q9NZN5 765-1138 limits assumed): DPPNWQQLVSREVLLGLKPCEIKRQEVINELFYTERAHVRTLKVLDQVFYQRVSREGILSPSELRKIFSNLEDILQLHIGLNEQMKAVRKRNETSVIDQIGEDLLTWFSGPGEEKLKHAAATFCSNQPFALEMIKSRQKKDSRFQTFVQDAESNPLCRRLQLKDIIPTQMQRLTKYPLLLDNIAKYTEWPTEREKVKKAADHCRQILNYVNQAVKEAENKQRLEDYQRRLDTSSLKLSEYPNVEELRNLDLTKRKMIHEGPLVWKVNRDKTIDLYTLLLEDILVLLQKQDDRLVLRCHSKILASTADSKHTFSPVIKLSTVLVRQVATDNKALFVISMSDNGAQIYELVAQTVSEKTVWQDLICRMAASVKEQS
The assay can be described thus: In vitro complex formation assay, LARG binding to RhoA. Conditions: for inhibition at 100 µM: read-out: Relative binding inhibition, %. Here is the method: About 1 μg of (His)6-tagged LARG DH-PH was incubated with 1 μg of EDTA-treated GSTRhoA or Cdc42 or GST alone in a binding buffer [20 mM Tris.HCl (pH 7.6), 100 mM NaCl, 1% BSA, 1% Triton X-100, 1 mM MgCl2] containing 15 μL of suspended glutathione-agarose beads. Y16 or other chemicals were added in the incubation buffer at the indicated concentrations. After an incubation at 4° C. for 1 h under constant agitation, the glutathione beads were washed twice with the binding buffer. The amount of (His)6-tagged protein coprecipitated with GST-fusion bound beads was detected by anti-His Western blotting. Similarly, cell lysates containing myc-Tiam1, (His)6-Cdc42, (His)6-TrioN, or (His)6-RhoA were mixed with purified GST-Rac1, GST-Cdc42, GST-mDia, GST-PKN, GSTROCKII, GST-p190GAP, or GST alone, and pairwise association was assessed in the presence or absence of indicated amount of Y16 and/or Rhosin.
The information in FIG. 4 was obtained by the following procedures. (A) Dose-dependent specific inhibition of LARG binding to RhoA by Y16, G04, or G04+Y16 combination at varying concentrations. (B) NIH 3T3 cells were treated with Y16, G04, or G04+Y16 combination at the indicated concentrations for 24 h in serum-free media. Cells were subsequently stimulated with 10% calf serum for 15 min and were subjected to GST-Rhotekin effector domain pull-down assays, and the activities of RhoA were examined. Relative amounts of GTP-bound form of the GTPases were quantified by densitometry measurements and normalized to those of the unstimulated cells. (C) NIH 3T3 cells were treated with Y16, G04, or G04+Y16 combination at the indicated concentrations for 24 h in serum-free media. Cells were subsequently stimulated with 10% calf serum for 15 min and were subjected to GST-Rhotekin and GST-PAK1 effector domain pull-down assays, and the activities of RhoA, Cdc42, and Rac1 were examined. Relative amounts of GTP-bound form of the GTPases were quantified by densitometry measurements and normalized to those of the nontreated cells. (D) NIH 3T3 cells were treated with Y16, G04, or G04+Y16 combination of the indicated concentrations in serum-free DMEM medium prior to stimulation with LPA (20 ng/mL) for 10 min. The cells were stained with rhodamine-phalloidin to reveal F-actin structures.
The inhibitory effects of the analogs were tested in a complex formation assay. (His)6-tagged LARG PH-DH (1 μg) was incubated with GST alone or GST-RhoA conjugated with glutathione agarose beads in the presence or absence of 100 μM indicated compounds. After an incubation at 4° C. for 1 h, the beads-associated (His)6-LARG PH-DH was detected by anti-His Western blotting. The relative inhibition of each analog was normalized to the inhibitory effect of Y16 of the same concentration.

For another assay, the target named is RhoA (Homo sapiens, UniProt P61586). The settings on record: reference 26; cited from earlier work.
For assay [1], the system named is RhoA-GTP. In words: RhoA activity in MCF7-derived mammospheres. The settings on record: alone at 10 μM. Type of assay: cell-based. The method, then: The information in FIG. 5 was obtained by the following procedures. (A) Y16, G04, or G04+Y16 combination inhibits MCF7 breast cell growth. MCF7 cells were plated at 1.5×10^4/24 well in the presence of Y16, G04, or G04+Y16 combination. Cell numbers were determined at the indicated times. (B) MCF7 cells were subjected migration assays in the presence of Y16, G04, or G04+Y16 combination. (C) The invasive activities were assayed in a Matrigel-coated transwell. (D) Y16, G04, or G04+Y16 combination inhibits RhoA and its downstream signaling activities in MCF7-derived mammospheres. (Upper) MCF7-derived mammospheres were treated with Y16, G04, or G04+Y16 combination at the indicated concentrations. Spheres were collected, and the RhoA activity was examined. Relative amounts of GTP-bound form of RhoA were quantified by densitometry measurements and normalized to those of the untreated cells. (Lower) Western blots are of p-MLC of MCF7-derived mammospheres. Y16, G04, or G04+Y16 combination inhibits MCF-7 cell-derived mammosphere formation. (E) MCF-7 cells were treated with Y16, G04, or G04+Y16 combination at the indicated concentrations for 24 h in serum-free media. MCF7 cells were dissociated to single cells with trypsin and cultured for 10 d at the density of 2×10^4/mL in suspension in the media containing G04 or Y16 at the indicated concentration. Photographs were taken after a 10-d culture. […]

The test system of assay [2] is RhoA-GTP. The assay can be described thus: Endogenous Rho GTPase activity assay, RhoA-GTP in NIH 3T3 cells. The class given is cell-based. Conditions: Mus musculus, NIH3T3, serum stimulated, acting alone at 30 μM, read-out: inhibition of RhoA-GTP content. The method, then: The information in FIG. 3 was obtained by the following procedures. (A and B) NIH 3T3 cells were treated with Y16 at the indicated concentrations for 24 h in serum-free media. Cells were subsequently stimulated with 10% calf serum for 15 min and were subjected to GST-Rhotekin or GST-PAK1 effector domain pull-down assays, and the activities of RhoA, Cdc42, and Rac1 were examined. Relative amounts of GTP-bound form of the GTPases were quantified by densitometry measurements and normalized to those of the unstimulated cells. […]
NIH 3T3 cells, MCF7 cells, or HME cells were grown in log phase in a 10-cm dish or a six-well dish, and were starved in serum-free medium in the presence or absence of Y16 at indicated concentrations for 24 h and were subsequently stimulated with 10% calf serum or FBS for 15 min. […] Lysates were clarified, the protein concentrations were normalized, and the GTP-bound RhoA, Rac1, or Cdc42 in the lysates were measured by respective anti-RhoA, Rac1, and Cdc42 Western blotting of the effector domain pull downs.
The information in FIG. 4 was obtained by the following procedures. […] Relative amounts of GTP-bound form of the GTPases were quantified by densitometry measurements and normalized to those of the unstimulated cells. […] Relative amounts of GTP-bound form of the GTPases were quantified by densitometry measurements and normalized to those of the nontreated cells. […]

The mark [3] stands for this setting: 100 μM compound, normalized to the inhibitory effect of Y16 of the same concentration.

pIC50: −log10 of the molar value.

Sequence of RhoA (P61586 whole entry): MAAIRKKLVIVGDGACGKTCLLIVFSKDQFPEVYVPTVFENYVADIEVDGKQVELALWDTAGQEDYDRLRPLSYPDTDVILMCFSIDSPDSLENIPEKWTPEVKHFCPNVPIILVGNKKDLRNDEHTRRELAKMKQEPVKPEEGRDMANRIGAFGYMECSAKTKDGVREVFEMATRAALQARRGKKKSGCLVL

As for `O=C1NN(c2ccccc2)C(=O)/C1=C/c1ccc(OCc2ccccc2)cc1` [Compound 1], at RhoA-LARG interaction (100 μM compound, normalized to the inhibitory effect of Y16 of the same concentration, 100 µM), the “Relative binding inhibition, %” value is 27.12%. Moreover, the inhibition at 100 µM at RhoA-LARG interaction (setting [3]) came out at 27.1%.

With `COc1cc(/C=C2/C(=O)NN(c3ccccc3)C2=O)ccc1O` [Compound 2], the inhibition at 100 µM on RhoA-LARG interaction (setting [3]) was 13%.

For the molecule `O=C1NN(c2ccccc2)C(=O)/C1=C\C1=NCc2ccccc21` [Compound 3], on RhoA-LARG interaction (setting [3]), the inhibition at 100 µM came out at 6.75%.

In the case of `COc1cc(/C=C2/C(=O)NN(c3ccccc3)C2=O)cc(Br)c1OCCOc1ccc(C)cc1` [Compound 4], at RhoA-LARG interaction (setting [3]), the inhibition at 100 µM came to 13.8%.

As for `O=C1/C(=C\c2ccccc2OCc2ccccc2)CNN1c1ccc(Br)cc1` [Compound 5], on RhoA-LARG interaction (setting [3]), the inhibition at 100 µM amounted to 7.34%.

Turning to `N[C@H](Cc1c[nH]c2ccccc12)C(=O)N/N=C/c1ccc2nccnc2c1` [Compound G04, (2R)-2-amino-3-(1Hindol-3-yl)-N′-[(1E)-quinoxalin-6-ylmethylidene]propanehydrazide], on RhoA, the “binding affinity to RhoA” value was “micromolar”. Besides, in the assay with RhoA-GTP [1], the inhibition at 10 µM is roughly 50%. The pIC50 on RhoA-LARG interaction (inhibitors alone or combined together, read-out: IC50 for inhibition of RhoA binding to LARG) is roughly 5.00. The inhibition at 30 µM with RhoA-GTP [2] was roughly 80%.
